This note sets out measurements from ChEMBL document CHEMBL6103580, “Synthesis and biological evaluation of natural cleistanolate, its enantiomer and analogues” (Eur J Med Chem, 2025).

Structures are written as SMILES. Activity calls are given as the source filed them.

One data set relates to K562. The data set can be described thus: Antiproliferative activity against human K562 cells assessed as inhibition of cell growth incubated for 72 hrs by MTT assay. The class given is functional, cell-based. To be noted: K562, 72 h.
The subject of a further data set is HL-60. Briefly: Antiproliferative activity against human HL-60 cells assessed as inhibition of cell growth incubated for 72 hrs by MTT assay. The data set is classed as functional, cell-based. To be noted: HL-60, 72 h. Background: Formazan colour is commonly taken as a measure of viable cells.
For another data set, the system named is Jurkat. Briefly: Antiproliferative activity against human Jurkat cells assessed as inhibition of cell growth incubated for 72 hrs by MTT assay. The data set is classed as functional, cell-based.
For data set [1], the system named is Raji. Briefly: Antiproliferative activity against human Raji cells assessed as inhibition of cell growth incubated for 72 hrs by MTT assay. The data set is classed as functional, cell-based.
A further data set has as its system MCF7. Briefly: Antiproliferative activity against human MCF7 cells assessed as inhibition of cell growth incubated for 72 hrs by MTT assay. The data set is classed as functional, cell-based. To be noted: MCF7, 72 h.
The test system of the next data set is MDA-MB-231. The data set can be described thus: Antiproliferative activity against human MDA-MB-231 cells assessed as inhibition of cell growth incubated for 72 hrs by MTT assay. The class given is functional, cell-based. To be noted: MDA-MB-231, 72 h.
Another data set deals with HeLa. Briefly: Antiproliferative activity against human HeLa cells assessed as inhibition of cell growth incubated for 72 hrs by MTT assay. The data set is classed as functional, cell-based.
The subject of the next data set is A549. The data set can be described thus: Antiproliferative activity against human A549 cells assessed as inhibition of cell growth incubated for 72 hrs by MTT assay. The class given is functional, cell-based. Particulars: A549, 72 h.
Data set [2] is described as follows: Antiproliferative activity against human MRC5 cells assessed as inhibition of cell growth incubated for 72 hrs by MTT assay. The class given is toxicity, cell-based.
Data set [3] concerns Raji. Briefly: Potency index, ratio of cleistanolate IC50 to test compound IC50 for antiproliferative activity against human Raji cells assessed as inhibition of cell growth incubated for 72 hrs by MTT assay. The data set is classed as functional.
Data set [4] is described as follows: Potency index, ratio of doxorubicin IC50 to test compound IC50 for antiproliferative activity against human HL-60 cells assessed as inhibition of cell growth incubated for 72 hrs by MTT assay. The data set is classed as functional.
In data set [5] the test system is Raji. The data set can be described thus: Potency index, ratio of doxorubicin IC50 to test compound IC50 for antiproliferative activity against human Raji cells assessed as inhibition of cell growth incubated for 72 hrs by MTT assay. The class given is functional.
A short description of data set [6]: Potency index, ratio of cleistanolate IC50 to test compound IC50 for antiproliferative activity against human HeLa cells assessed as inhibition of cell growth incubated for 72 hrs by MTT assay. The data set is classed as functional.
The test system of data set [7] is Escherichia coli. The data set can be described thus: Antibacterial activity against Escherichia coli ZPM 132 assessed as reduction in cell viability incubated for 24 hrs by muller hinton broth microdilution based XTT assay. The data set is classed as functional. On the technique in general: In broth dilution the organism is exposed to a series of concentrations in liquid medium.

The test system of data set [8] is Escherichia coli. The data set can be described thus: Antimicrobial activity against Escherichia coli ZPM 132 assessed as reduction in cell viability incubated for 24 hrs by muller hinton broth microdilution based XTT assay. The class given is functional.
In a further data set the test system is Vibrio cholerae. Briefly: Antibacterial activity against Vibrio cholerae O139 CIRS 245 assessed as reduction in cell viability incubated for 24 hrs by muller hinton broth microdilution based XTT assay. The data set is classed as functional.
The next data set relates to Streptococcus pneumoniae. Briefly: Antibacterial activity against Streptococcus pneumoniae ZPM 187 assessed as reduction in cell viability incubated for 24 hrs by muller hinton broth microdilution based XTT assay. The class given is functional.
Another data set relates to Candida tropicalis. The data set can be described thus: Antifungal activity against Candida tropicalis CCY 29-7-62 assessed as reduction in fungal growth incubated for 48 hrs by muller hinton broth microdilution based XTT assay. The class given is functional.
Data set [9] concerns the target Cholinesterase (Homo sapiens) (UniProt P06276). Briefly: Inhibition of human BChE at 100 uM using acetylthiocholine iodide as substrate by DTNB reagent based Ellman spectrophotometric analysis relative to control. (In general: Ellman's reagent forms a yellow product with free thiols.)

Sequence of Cholinesterase (Homo sapiens) (P06276 whole entry): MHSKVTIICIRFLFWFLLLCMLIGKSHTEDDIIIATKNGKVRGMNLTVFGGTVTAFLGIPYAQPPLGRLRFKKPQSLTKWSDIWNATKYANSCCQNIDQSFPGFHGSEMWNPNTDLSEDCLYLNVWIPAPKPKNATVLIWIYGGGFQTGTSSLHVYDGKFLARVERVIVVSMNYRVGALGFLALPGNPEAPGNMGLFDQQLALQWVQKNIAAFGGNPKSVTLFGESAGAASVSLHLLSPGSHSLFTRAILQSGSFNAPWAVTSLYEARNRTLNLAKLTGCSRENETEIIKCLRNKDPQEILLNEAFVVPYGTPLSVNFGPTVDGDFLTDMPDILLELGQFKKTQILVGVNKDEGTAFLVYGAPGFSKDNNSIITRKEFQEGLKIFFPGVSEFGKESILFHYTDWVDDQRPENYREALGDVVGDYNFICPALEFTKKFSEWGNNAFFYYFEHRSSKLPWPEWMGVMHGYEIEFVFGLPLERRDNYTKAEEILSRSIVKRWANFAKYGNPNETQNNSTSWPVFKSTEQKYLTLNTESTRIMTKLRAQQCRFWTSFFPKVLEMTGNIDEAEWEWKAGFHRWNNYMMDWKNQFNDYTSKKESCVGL

Usually IC50 stands for the concentration that inhibits the measured activity by half. For the compound `CO[C@@H]1CC(=O)O[C@@H]1[C@@H](OC(C)=O)[C@@H](COC(=O)c1ccccc1)OC(C)=O`, the IC50 in the data set with K562 stood at 7.23 µM; with HL-60, 16.5 µM; in the data set with Jurkat, 22.1 µM; in the data set with Raji [1] it was 31.4 µM; with MCF7 it was 13.5 µM; in the data set with MDA-MB-231, 28.4 µM. The IC50 was found to be 6.31 µM in the data set with HeLa and 9.78 µM in the data set on A549. The IC50 at 72 h in data set [2] was above 100 µM. Also, the “Ratio IC50” value with Raji [3] amounted to 2.1.
Turning to `O=C1C[C@@H]2O[C@@H](CO)[C@@H](O)[C@@H]2O1`, the IC50 in the data set with K562 was 5.56 µM; in the data set on HL-60, 11.2 µM; with Jurkat, 7.38 µM; in the data set with Raji [1], 10.2 µM; in the data set on MCF7, 4.02 µM; with MDA-MB-231, 30 µM. Moreover, the IC50 in the data set with HeLa came out at 7.26 µM; in the data set with A549, 15.9 µM. For the same compound, the IC50 at 72 h in data set [2] is above 100 µM. The “Ratio IC50” value in the data set with Raji [3] came to 2.1.
Take `O=C1C[C@@H](O)[C@@H]([C@@H](O)[C@H](O)CO)O1`: the IC50 in the data set on K562 stood at 2.36 µM; in the data set on HL-60 it was 0.74 µM; in the data set with Jurkat it was 3.25 µM; in the data set on Raji [1] it was 2.64 µM; with MCF7, 0.63 µM; in the data set on MDA-MB-231, 5.32 µM. Moreover, the IC50 worked out at 0.89 µM with HeLa and 8.64 µM in the data set on A549. Further, in data set [2], the IC50 at 72 h is above 100 µM. Besides, the “Ratio IC50” value in data set [4] was 1.3; with Raji [5], 1.1; in data set [6], 2.
Broadly, the MBC is the lowest tested concentration that kills the bacteria rather than only halting them. The MIC is the lowest concentration that inhibits growth of the organism. What is called MFC is the smallest concentration meeting the test's criterion for killing the fungus. The term inhibition denotes the drop in the measured response relative to a control, in per cent. As for `CO[C@@H]1CC(=O)O[C@@H]1[C@@H](OC(C)=O)[C@H](COC(=O)c1ccccc1)OC(C)=O`, the MBC with Escherichia coli [7] is above 1000 µg/mL; in the data set with Vibrio cholerae, above 100 µg/mL; with Streptococcus pneumoniae, above 100 µg/mL. In addition, the IC50 in the data set with K562 was determined as 12 µM; in the data set on HL-60, 11 µM; with Jurkat it was 26.3 µM; in the data set on Raji [1] it was 22.3 µM; with MCF7 it was 5.4 µM; in the data set on MDA-MB-231, 21.7 µM. The values for the IC50 in the data set on HeLa and in the data set with A549 were 2.45 µM and 25.4 µM, respectively. Moreover, the IC50 at 72 h in data set [2] stood at 94.8 µM. Besides, the MIC with Escherichia coli [8] is above 1000 µg/mL. For the same compound, the MFC with Candida tropicalis was above 100 µg/mL. The compound also yielded an inhibition in [9] of 35%.
Take `O=C1C[C@H]2O[C@@H]3CO[C@@H]3[C@H]2O1`: the IC50 in the data set with K562 is 2.03 µM; in the data set on HL-60 it was 15.6 µM; with Jurkat it was 10.4 µM; with Raji [1], 15.7 µM; in the data set on MCF7, 1.05 µM; with MDA-MB-231 it was 5.36 µM. In addition, the IC50 came to 1.2 µM with HeLa and 18.6 µM in the data set with A549. In addition, the IC50 at 72 h in data set [2] is above 100 µM. Besides, the “Ratio IC50” value in data set [6] is reported as 2.5.
Consider `C=C[C@H](O)[C@H]1OC(=O)C[C@H]1OC`, for which the MBC in the data set on Escherichia coli [7] is above 1000 µg/mL; with Vibrio cholerae, above 100 µg/mL; in the data set with Streptococcus pneumoniae, above 100 µg/mL. The IC50 in the data set on K562 was 8.05 µM; in the data set on HL-60 it was 11.7 µM; in the data set on Jurkat it was 12.8 µM; in the data set with Raji [1], 32.9 µM; in the data set on MCF7 it was 4.23 µM; in the data set with MDA-MB-231, 11.8 µM. Moreover, the IC50 in the data set with HeLa was 10.9 µM; in the data set on A549 it was 28.3 µM. The IC50 at 72 h in data set [2] is above 100 µM. For the same compound, the MIC in the data set with Escherichia coli [8] is above 1000 µg/mL. For the same compound, the MFC with Candida tropicalis is above 100 µg/mL. Also, the inhibition result in data set [9] is “inactive”.
